Laboratory results as given in US4083951A, “Pharmaceutical composition” (Beecham Group Limited, priority 1976, dated 1978).

Assays:
gastric erosions = experiment: gastric irritancy in starved rats, 1 hour contact time; format: in vivo, rat; conditions: rats fasted 18 hr
Procedure: When tested in starved rats (18 hr. fasted) with a 1 hour contact time the following results were obtained:
*Mixture made from dry compounds
**Constituents dosed as solutions

[1] = system: phenylquinone induced writhing; experiment: phenylquinone induced writhing in the mouse (analgesic effects); format: in vivo; conditions: dose in terms of acetyl salicylate content, mixture at 2:1 ratio of equivalents, read-out: ED50 (analgesic effect)
Procedure: Sodium acetyl salicylate and mixtures of sodium acetyl salicylate and ferrous sulphate (2:1 ratio of equivalents) were tested against phenylquinone induced writhing in the mouse. Dose responses were plotted in terms of acetyl salicylate content and the following ED50 values obtained: […]

Row | Structure (SMILES) | % incidence gastric erosions (gastric erosions; dose 100 mg/kg) [%] | % incidence gastric erosions (gastric erosions; dose 160 mg/kg) [%] | % incidence gastric erosions (gastric erosions; dose 338 mg/kg) [%] | ED50 [1] [mg/kg]
1 | CC(=O)Oc1ccccc1C(=O)O [Calcium acetyl salicylate] | 25 |  |  | 
2 | CC(=O)Oc1ccccc1C(=O)O [Sodium acetyl salicylate] |  | 88 | 75 | 56
